Results reported in patent publication US9107814B2, “Micelle composition of polymer and passenger drug” (Wisconsin Alumni Research Foundation, priority 2005, dated 2015).

Columns and labels:
[1] = different species; cited from earlier work
[2] = loading of rapamycin and geldanamycin into PEG-DSPE and PEG-PCL micelles; format: physicochemical; settings: micelle solution against water solubility
Source text: The final solvent to water ratio is between about 0.1 and about 5, preferably between about 0.5 and about 4, and more preferably about 2. The micelle solution should be delivered at a rate of between about 2 s/drop and about 60 s/drop, preferably between about 5 s/drop and about 30 s/drop, and more preferably between about 10 s/drop and about 20 s/drop.

Protocol for physchem: The octanol-water partition coefficient of geldanamycin was determined by microemulsion electrokinetic chromatography.
Running buffer was prepared by titration of 25-mM sodium phosphate monobasic with 50-mM sodium tetraborate to pH 7.00, and 1.44 g of sodium dodecyl sulfate, 6.49 g of 1-butanol, and 0.82 g of heptane were made up to 100 ml with phosphate-borate buffer. The running buffer was ultrasonicated for 30 min in a closed 250-ml flask in ice water (G112SP1 Special Ultrasonic Cleaner, Laboratory Supplies Company Inc., Hicksville, N.Y.). […] Compounds and standards (n=3) were dissolved in the running buffer (0.05 mg/ml) with 0.5 μL/ml of nitromethane and 0.5 μL/ml of 1-phenyldodecane by ultrasonication (10 min) in a closed tube and centrifuged (16000×g, 3 min) to degas. A BioFocus 3000 capillary electrophoresis system (Bio-Rad, Hercules, Calif.) equipped with a 50-μm ID×37-cm uncoated fused-silica column (Polymicron Technologies LLC, Phoenix, Ariz.) was used for MEEKC experiments. The column was prewashed with 1-M NaOH for 5 min and before runs with 0.1-M NaOH for 1 min, ddH2O for 1 min, and running buffer for 1 min at 100 psi (690 kPa). Running conditions were 10 kV (ca. 30-35 μA, 30 min/run) at 20° C. with 1-psi·s injections (6.9 kPa·s) and detection at 210 and 232 nm. Log Po/w and retention factors, k′, were calculated using the equations:
[formula] [formula] where tr, t0, and tme are retention times of the prodrug, nitromethane, and 1-phenyldodecane, respectively. Fitting parameters a and b were determined by linear regression of known standards: pyridine, phenol, benzoic acid, anisole, benzene, toluene, dodecanoic acid, benzopyrene, and pyrene (R^2=0.996, Excel® 2003, Microsoft Corp.).

## CO[C@H]1C[C@@H]2CC[C@@H](C)[C@@](O)(O2)C(=O)C(=O)N2CCCC[C@H]2C(=O)O[C@H]([C@H](C)C[C@@H]2CC[C@@H](O)[C@H](OC)C2)CC(=O)[C@H](C)/C=C(\C)[C@@H](O)[C@@H](OC)C(=O)[C@H](C)C[C@H](C)/C=C/C=C/C=C/1C [Rapamycin]
[1]
  half-life: more than 5 hours
[2]
  increase in solubility: 1900 fold
physchem
  chromatographic logP: 3.77
